Laboratory results from patent US20230286973A1, “PROTEIN SECRETION INHIBITORS” (KEZAR LIFE SCIENCES, priority 2020, published 2023).

What was measured:
[1] = test system: PD1-ss+10aa/Gaussia Luciferase; test: Dox-Induced PD1-ss-Gluc Assay; format: cell-based; conditions: 24 hr Dox induction; 293FRT/TO cells; read-out: 24 hr Dox Inducible PD1ssGluc 293FRT/TO: Mean IC50
Summary of the method: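 Stable Flp-In 293 T-REx cells carried a doxycycline-inducible construct of Gaussia luciferase fused to the PD1 signal sequence plus 10 amino acids. Cells were plated the day before, then treated with compound dilutions in DMSO/media containing doxycycline at 37 °C, 5% CO2.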

[2] = test system: TNFα-FL/Gaussia Luciferase; test: Dox Induced TNFα-FL-Gluc Assay; format: cell-based; conditions: for IC50: 24 hr Dox induction, 293FRT/TO cells, read-out: 24 hr Dox Inducible TNFaFLGluc 293FRT/TO: Mean IC50; for 24 hr Dox Inducible TNFaFLGluc 293FRT/TO: TNF/PD1: ratio of TNFaFLGluc IC50 to PD1ssGluc IC50
Summary of the method: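 Cell line: stable Flp-In 293 T-REx, TNFα-FL(1-233)-Gaussia luciferase fusion, T-REx-inducible. Plated day -1; compounds in DMSO/media + doxycycline, 37 °C, 5% CO2. Undefined stereocentres = mixture tested.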

[3] = test system: HER3-ss+4aa/Gaussia Luciferase; test: Dox-Induced Her3-ss-Gluc Assay; format: cell-based; conditions: 24 hr Dox induction; 293FRT/TO cells; read-out: 24 hr Dox Inducible Her3(ss + 4)Gluc 293FRT/TO: Mean IC50
Excerpt: Flp-In 293 T-REx™ cells were transfected with pcDNA™5/FRT/TO plasmid inserted with cDNA encoding Gaussia Luciferase fused to the 3′ end of cDNA encoding HER3 signal sequence plus 4 amino acids (N-[…]-C) (SEQ ID NO: 2). Transfected cells were selected for resistance to the selectable markers Hygromycin and Blasticidin to create a stable cell line that contained the HER3-ss+4aa/Gaussia Luciferase cDNA insert whose expression was regulated under the T-REx™ system. The day before assay, cells were trypsinized and plated in 384-well tissue culture plates. The next day, compound dilutions in DMSO/media containing doxycycline were added to the wells and incubated at 37° C., 5% CO2.
For chemical structures that include one or more stereoisomers, but are illustrated without indicating stereochemistry, the assay data refers to a mixture of stereoisomers.

[4] = test system: IL-2-FL/Gaussia Luciferase; test: Dox Induced IL2-FL-Gluc Assay; format: cell-based; conditions: for IC50: 24 hr Dox induction, 293FRT/TO cells, read-out: 24 hr Dox Inducible IL2FLGluc 293FRT/TO: Mean IC50; for 24 hr Dox Inducible IL2FLGluc 293FRT/TO: IL2/PD1: ratio of IL2FLGluc IC50 to PD1ssGluc IC50
Summary of the method: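 Stable Flp-In 293 T-REx line, Tet-regulated IL-2 (aa 1-153)–Gaussia luciferase fusion; hygromycin/blasticidin selected. Plated day -1; compound + doxycycline added next day; 37° C, 5% CO2.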

[5] = test system: multiple myeloma cell line NCI-H929; test: H929 Cell Viability Assay; format: cell-based, human; conditions: Homo sapiens, NCI-H929, 48 h, NCI-H929 cells, Celltiter-Glo
Summary of the method: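 Cells in RPMI 1640/10% FBS; compound dilutions in DMSO/media; 48 h, 37° C, 5% CO2; CellTiter-Glo luciferase readout for viability.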

[6] = test system: multiple myeloma cell line U266B1; test: U266 Cell Viability Assay; format: cell-based, human; conditions: Homo sapiens, U-266, 48 h, U266B1 cells, Celltiter-Glo
Summary of the method: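 Luminescent ATP read-out (CellTiter-Glo) after 48 h compound exposure at 37° C., 5% CO2; cells maintained in RPMI 1640/10% FBS/2 mM glutamine/pen-strep, compounds diluted in DMSO/media.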

[7] = Liver Microsome Stability Assay (rat); conditions: rat liver microsomes, with NADPH, 1.0 uM compound
Procedure: (§1) Stability of a compound was assessed in the presence of liver microsomes from various sources—mouse, rat, monkey and human liver microsomes. 1.0 uM compound, 0.4% DMSO in 0.1 M Potassium Phosphate with 1.0 mg/mL liver microsomes, were incubated at 37° C. with or without 1 mM NADPH. The samples were quenched at 0, and 30 minutes.

[8] = Liver Microsome Stability Assay (mouse); conditions: mouse liver microsomes, with NADPH, 1.0 uM compound
Procedure: as §1

[9] = Liver Microsome Stability Assay (human); conditions: human liver microsomes, with NADPH, 1.0 uM compound
Procedure: as §1

[10] = Liver Microsome Stability Assay (monkey); conditions: monkey liver microsomes, with NADPH, 1.0 uM compound
Procedure: as §1

Row | Structure (SMILES) | IC50 [1] | IC50 [2] | IC50 [3] | IC50 [4] | EC50 [5] | EC50 [6] | Liver Microsome Stability (Multiple Species): Rat - % Remaining after 30 min w/NADPH [7] | Liver Microsome Stability (Multiple Species): Mouse - % Remaining after 30 min w/NADPH [8] | Liver Microsome Stability (Multiple Species): Human - % Remaining after 30 min w/NADPH [9] | Liver Microsome Stability (Multiple Species): Monkey - % Remaining after 30 min w/NADPH [10] | 24 hr Dox Inducible TNFaFLGluc 293FRT/TO: TNF/PD1 [2] | 24 hr Dox Inducible IL2FLGluc 293FRT/TO: IL2/PD1 [4]
1 | CN(C)C(=O)c1ccc(N2CCC[C@@H]2c2csc(NC(=O)c3cccn3Cc3ccncc3)n2)cc1 [Compound A18, (R)-N-(4-(1-(4-(dimethylcarbamoyl)phenyl)pyrrolidin-2-yl)thiazol-2-yl)-1-(pyridin-4-ylmethyl)-1H-pyrrole-2-carboxamide] | 64.2 nM | 1020 nM | 109 nM | 145 nM | 1580 nM | > 25000 nM | 0.17% | 3.75% | 0.05% | 0.08% | 15.9 | 2.3
2 | O=C(Nc1nc([C@H]2CCCN2c2ccc([N+](=O)[O-])cc2)cs1)c1cccn1Cc1ccncc1 [Compound A27, (R)-N-(4-(1-(4-nitrophenyl)pyrrolidin-2-yl)thiazol-2-yl)-1-(pyridin-4-ylmethyl)-1H-pyrrole-2-carboxamide] | 57.9 nM | 1100 nM | 109 nM | 144 nM | 5790 nM | > 25000 nM | 0.33% | 6.54% | 1.61% | 0.51% | 19.1 | 2.5
3 | O=C(Nc1nc([C@H]2CCCN2c2ccc(C(F)(F)F)cc2)cs1)c1cccn1Cc1ccncc1 [Compound A28, (R)-1-(pyridin-4-ylmethyl)-N-(4-(1-(4-(trifluoromethyl)phenyl)pyrrolidin-2-yl)thiazol-2-yl)-1H-pyrrole-2-carboxamide] | 5.73 nM | 137 nM | 11.6 nM | 10.8 nM | 251 nM | 10100 nM | 51.5% | 30.3% | 16.4% | 3.97% | 23.9 | 1.9
4 | O=C(Nc1nc([C@H]2CCCN2c2cccnn2)cs1)c1cccn1Cc1ccncc1 [Compound A29, (R)-N-(4-(1-(pyridazin-3-yl)pyrrolidin-2-yl)thiazol-2-yl)-1-(pyridin-4-ylmethyl)-1H-pyrrole-2-carboxamide] | 534 nM | 13100 nM | 1130 nM | 2220 nM | > 25000 nM | > 25000 nM | 4.6% | 1.4% | 0.59% | 0.39% | 24.4 | 4.1

Further lines, with some results ahead:

Row | IC50 [1] | IC50 [2] | IC50 [3] | IC50 [4] | EC50 [5] | EC50 [6] | Liver Microsome Stability (Multiple Species): Rat - % Remaining after 30 min w/NADPH [7] | Liver Microsome Stability (Multiple Species): Mouse - % Remaining after 30 min w/NADPH [8] | Liver Microsome Stability (Multiple Species): Human - % Remaining after 30 min w/NADPH [9] | Liver Microsome Stability (Multiple Species): Monkey - % Remaining after 30 min w/NADPH [10] | Structure (SMILES) | 24 hr Dox Inducible TNFaFLGluc 293FRT/TO: TNF/PD1 [2] | 24 hr Dox Inducible IL2FLGluc 293FRT/TO: IL2/PD1 [4]
5 | 2.46 nM | 45.3 nM | 5.66 nM | 9.11 nM | 219 nM | > 25000 nM | 0.39% | 3.24% | 0.48% | 0.17% | NC(=O)c1ccc(N2CCC[C@@H]2c2csc(NC(=O)c3cccn3Cc3ccncc3)n2)cc1 [Compound A19] | 18.4 | 3.7
6 | 16.4 nM | 131 nM | 40.3 nM | 39.6 nM | 340 nM | 4700 nM | 26.3% | 7.28% | 4.63% | 2.72% | Nc1ccc(N2CCC[C@@H]2c2csc(NC(=O)c3cccn3Cc3ccncc3)n2)cc1 [Compound A20] | 8 | 2.4
7 | 0.89 nM | 27.1 nM | 2.61 nM | 3.87 nM | 54.1 nM | > 25000 nM | 11% | 6.31% | 4.28% | 1.43% | Cc1ccc(N2CCC[C@@H]2c2csc(NC(=O)c3cccn3Cc3ccncc3)n2)cc1 [Compound A21, (R)-1-(pyridin-4-ylmethyl)-N-(4-(1-(p-tolyl)pyrrolidin-2-yl)thiazol-2-yl)-1H-pyrrole-2-carboxamide] | 30.4 | 4.3
8 | 9.92 nM | 240 nM | 20.7 nM | 17.5 nM | 412 nM | 16100 nM | 1.84% | 1.56% | 3.01% | 1.66% | O=C(Nc1nc([C@H]2CCCN2c2ccc(F)cc2)cs1)c1cccn1Cc1ccncc1 [Compound A25, (R)-N-(4-(1-(4-fluorophenyl)pyrrolidin-2-yl)thiazol-2-yl)-1-(pyridin-4-ylmethyl)-1H-pyrrole-2-carboxamide] | 24.2 | 1.8
9 | 3.15 nM | 158 nM | 9.38 nM | 6.78 nM | 136 nM | 1170 nM | 8.78% | 5.75% | 5.11% | 3.34% | O=C(Nc1nc([C@H]2CCCN2c2ccc(Cl)cc2)cs1)c1cccn1Cc1ccncc1 [Compound A26, (R)-N-(4-(1-(4-chlorophenyl)pyrrolidin-2-yl)thiazol-2-yl)-1-(pyridin-4-ylmethyl)-1H-pyrrole-2-carboxamide] | 50.2 | 2.1
10 | 167 nM | 3880 nM | 415 nM | 408 nM | 3310 nM | 6950 nM | 30% | 62.6% | 28.6% | 26% | NCc1ccc(N2CCC[C@@H]2c2csc(NC(=O)c3cccn3Cc3ccncc3)n2)cc1 [Compound A44, (R)-N-(4-(1-(4-(aminomethyl)phenyl)pyrrolidin-2-yl)thiazol-2-yl)-1-(pyridin-4-ylmethyl)-1H-pyrrole-2-carboxamide] | 23.3 | 2.4
